Results from ChEMBL document CHEMBL1201862, “PubChem BioAssay data set” (2004).
“And” between values parts separate entries of the source, which are not always exact repeats. Identical values can stand only once.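 Each compound was tested at five concentrations against cells in 96-well plates for 48 hours. Abbreviation: GI50, concentration required for 50% inhibition of growth.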 The source made the active and inactive calls. Cut-off read from the data, not from the text of the source: active = GI50 up to about 1.1 µM and inactive = higher. Where a SMILES comes first, the peptide text is derived from it. The star is where a group is joined. Boc = CC(C)(C)OC(=O)*

Assays:
Experiment in all cases: NCI tumour cell line growth inhibition, 48 h
HCT-15 = tested on: HCT-15
Malme-3M = tested on: Malme-3M
SF-268 = tested on: SF-268
SN12C = tested on: SN12C
SNB-19 = tested on: SNB-19
OVCAR-5 = tested on: OVCAR-5
M14 = tested on: M14
MDA-MB-435 = tested on: MDA-MB-435
TK-10 = tested on: TK-10
UACC-257 = tested on: UACC-257
KM12 = tested on: KM12
SR = tested on: SR
MDA-MB-231 = tested on: MDA-MB-231
HCT-116 = tested on: HCT-116
OVCAR-3 = tested on: OVCAR-3
A549 = tested on: A549
U-251 = tested on: U-251
SK-MEL-2 = tested on: SK-MEL-2
T47D = tested on: T47D
PC-3 = tested on: PC-3

SMILES | GI50 (HCT-15) | GI50 (Malme-3M) | GI50 (SF-268) | GI50 (SN12C) | GI50 (SNB-19) | GI50 (OVCAR-5) | GI50 (M14) | GI50 (MDA-MB-435) | GI50 (TK-10) | GI50 (UACC-257) | GI50 (KM12) | GI50 (SR) | GI50 (MDA-MB-231) | GI50 (HCT-116) | GI50 (OVCAR-3) | GI50 (A549) | GI50 (U-251) | GI50 (SK-MEL-2) | GI50 (T47D) | GI50 (PC-3)
CC(=O)OCC1OC(N2C(C)=C(C(C)=O)C(c3ccco3)C(C#N)=C2S)C(OC(C)=O)C(OC(C)=O)C1OC(C)=O (stereo not given) | > 100 µM | > 100 µM (inactive) | > 100 µM (inactive) | > 100 µM (inactive) | > 100 µM (inactive) | > 100 µM (inactive) | > 100 µM (inactive) | > 100 µM (inactive) | > 100 µM (inactive) | > 100 µM (inactive) | > 100 µM (inactive) | 95.3 µM (inactive) | > 100 µM (inactive) | > 100 µM (inactive) | > 100 µM (inactive) | > 100 µM (inactive) | > 100 µM (inactive) | > 100 µM (inactive) | 78.7 µM (inactive) | > 100 µM (inactive)
Nc1c2c(nc3ccccc13)CCCc1ccccc1-2 | 13.8 µM | 18.5 µM (inactive) | 16.9 µM (inactive) | 12.8 µM (inactive) | 11.3 µM (inactive) | 12.4 µM (inactive) | 7.91 µM (inactive) | 11.3 µM (inactive) | 6.08 µM (inactive) | 12.7 µM (inactive) | 13.1 µM (inactive) | 7.35 µM (inactive) | 5.38 µM (inactive) | 4.78 µM (inactive) | 27 µM (inactive) | 16.3 µM (inactive) | 11.3 µM (inactive) | 13.4 µM (inactive) | 11 µM (inactive) | 14.3 µM (inactive)
CC1=C(/C=C/C(C)=C/C=C/C(C)=C/C(=O)OCC2OC(n3cc(F)c(=O)[nH]c3=O)CC2OC(=O)/C=C(C)/C=C/C=C(C)/C=C/C2=C(C)CCCC2(C)C)C(C)(C)CCC1 (stereo not given) | 13.2 µM | 7.43 µM (inactive) | 0.618 µM (active) | 7.43 µM (inactive) | 3.1 µM (inactive) | > 45.3 µM (inactive) | 3.81 µM (inactive) | 13.3 µM (inactive) | 21.6 µM (inactive) | 9.23 µM (inactive) | 23.9 µM (inactive) | 0.794 µM (active) | 30.1 µM (inactive) | 2.82 µM (inactive) | 9.75 µM (inactive) | 0.402 µM (active) | 4.15 µM (inactive) | 58.6 µM (inactive) | 15.7 µM (inactive) | 8.95 µM (inactive)
O=C1C=CC(=O)C(CNc2ccc(C(=O)OCc3ccccc3)cc2)=C1 | 2.59 µM | 2.67 µM (inactive) | 6.4 µM (inactive) | 6.18 µM (inactive) | 13.4 µM (inactive) | 15.6 µM (inactive) | 7.05 µM (inactive) | 5.06 µM (inactive) | 4.62 µM (inactive) | 11.5 µM (inactive) | 9.35 µM (inactive) | 1.29 µM (inactive) | 7.82 µM (inactive) | 5.3 µM (inactive) | 2.4 µM (inactive) | 14.5 µM (inactive) | 6.24 µM (inactive) | 14.9 µM (inactive) | 1.77 µM (inactive) | 3.36 µM (inactive)
COC(=O)C(C)NC(=O)C(CCSC)NC(=O)C(Cc1ccccc1)NC(=O)OC(C)(C)C (stereo not drawn) (Boc-Phe-Met-Ala-OMe; configuration not given here) | > 100 µM | > 100 µM (inactive) | > 100 µM (inactive) | > 100 µM (inactive) | > 100 µM (inactive) | > 100 µM (inactive) | > 100 µM (inactive) | > 100 µM (inactive) | > 100 µM (inactive) | > 100 µM (inactive) | > 100 µM (inactive) | > 100 µM (inactive) | > 100 µM (inactive) | > 100 µM (inactive) | > 100 µM (inactive) | > 100 µM (inactive) | > 100 µM (inactive) | > 100 µM (inactive) | > 100 µM (inactive) | > 100 µM (inactive)
O=C1CCC(CCc2nc3ccccc3[nH]2)(c2ccccc2)C(=O)N1 (stereo not given) | > 100 µM | > 100 µM (inactive) | > 100 µM (inactive) | > 100 µM (inactive) | > 100 µM (inactive) | > 100 µM (inactive) | > 100 µM (inactive) | > 100 µM (inactive) | > 100 µM (inactive) | > 100 µM (inactive) | > 100 µM (inactive) | > 100 µM (inactive) | > 100 µM (inactive) | > 100 µM (inactive) | > 100 µM (inactive) | > 100 µM (inactive) | > 100 µM (inactive) | > 100 µM (inactive) | > 100 µM (inactive) | > 100 µM (inactive)
Cn1c(=O)c2[nH]c(C3CC(=O)CC(c4nc5c([nH]4)c(=O)n(C)c(=O)n5C)N3)nc2n(C)c1=O (stereo not given) | > 100 µM | > 100 µM (inactive) | > 100 µM (inactive) | > 100 µM (inactive) | > 100 µM (inactive) | > 100 µM (inactive) | > 100 µM (inactive) | > 100 µM (inactive) | > 100 µM (inactive) | > 100 µM (inactive) | > 100 µM (inactive) | 95.1 µM (inactive) | > 100 µM (inactive) | > 100 µM (inactive) | > 100 µM (inactive) | > 100 µM (inactive) | 91 µM (inactive) | > 100 µM (inactive) | > 100 µM (inactive) | > 100 µM (inactive)
CC(=O)Nc1cc2cc(N)ccc2oc1=O | > 100 µM | > 100 µM (inactive) | > 100 µM (inactive) | > 100 µM (inactive) | > 100 µM (inactive) | > 100 µM (inactive) | > 100 µM (inactive) | > 100 µM (inactive) | > 100 µM (inactive) | > 100 µM (inactive) | > 100 µM (inactive) | > 100 µM (inactive) | > 100 µM (inactive) | > 100 µM (inactive) | > 100 µM (inactive) | > 100 µM (inactive) | > 100 µM (inactive) | > 100 µM (inactive) | > 100 µM (inactive) | > 100 µM (inactive)
O=C(O)c1cc2c(cc1CC(Cc1ccc3c(c1)CCCC3)C(=O)O)CCCC2 (stereo not given) | 64.4 µM | > 100 µM (inactive) | 39.4 µM (inactive) | > 100 µM (inactive) | 60 µM (inactive) | > 100 µM (inactive) | > 100 µM (inactive) | > 100 µM (inactive) | > 100 µM (inactive) | 44.6 µM (inactive) | > 100 µM (inactive) | > 100 µM (inactive) | > 100 µM (inactive) | > 100 µM (inactive) | > 100 µM (inactive) | > 100 µM (inactive) | > 100 µM (inactive) | > 100 µM (inactive) | 88.1 µM (inactive) | > 100 µM (inactive)
O=CNC(Cc1c[nH]cn1)C(=O)O (stereo not given) | > 100 µM | > 100 µM (inactive) | > 100 µM (inactive) | > 100 µM (inactive) | > 100 µM (inactive) | > 100 µM (inactive) | > 100 µM (inactive) | > 100 µM (inactive) | > 100 µM (inactive) | > 100 µM (inactive) | > 100 µM (inactive) | > 100 µM (inactive) | > 100 µM (inactive) | > 100 µM (inactive) | > 100 µM (inactive) | > 100 µM (inactive) | > 100 µM (inactive) | > 100 µM (inactive) | > 100 µM (inactive) | > 100 µM (inactive)
CC(=O)c1c(=O)n(-c2ccc(C)cc2)c(O)c2c(N)n[nH]c12 | > 100 µM | > 100 µM (inactive) | > 100 µM (inactive) | > 100 µM (inactive) | > 100 µM (inactive) | > 100 µM (inactive) | > 100 µM (inactive) | > 100 µM (inactive) | > 100 µM (inactive) | > 100 µM (inactive) | > 100 µM (inactive) | > 100 µM (inactive) | > 100 µM (inactive) | > 100 µM (inactive) | > 100 µM (inactive) | > 100 µM (inactive) | > 100 µM (inactive) | > 100 µM (inactive) | > 100 µM (inactive) | > 100 µM (inactive)
NN | 296 µM | 881 µM (inactive) | 561 µM (inactive) | 403 µM (inactive) | 887 µM (inactive) | 514 µM (inactive) | 468 µM (inactive) | 210 µM (inactive) | 893 µM (inactive) | 851 µM (inactive) | 480 µM (inactive) | 100 µM (inactive) | 423 µM (inactive) | 192 µM (inactive) | 431 µM (inactive) | 145 µM (inactive) | 410 µM (inactive) | 607 µM (inactive) | 618 µM (inactive) | 628 µM (inactive)
CC(=O)OC1COC(n2c(N)c(C#N)c(-c3ccccc3)c(C#N)c2=S)C(OC(C)=O)C1OC(C)=O (stereo not given) | 52.6 µM and 72.6 µM | 34.3 µM (inactive) and 33.4 µM (inactive) | 36 µM (inactive) | 48.1 µM (inactive) and 36.7 µM (inactive) | 75.9 µM (inactive) | 46.5 µM (inactive) and 89.1 µM (inactive) | 70.8 µM (inactive) and 64.1 µM (inactive) | 27.8 µM (inactive) and 24.3 µM (inactive) | 30.2 µM (inactive) | 57.7 µM (inactive) and 80.9 µM (inactive) | 67 µM (inactive) and 40.7 µM (inactive) | 19.6 µM (inactive) and 22.2 µM (inactive) | 50.9 µM (inactive) and 56.6 µM (inactive) | 45.5 µM (inactive) and 37.8 µM (inactive) | 28.9 µM (inactive) and 33.2 µM (inactive) | 71 µM (inactive) and 85.9 µM (inactive) | 48.8 µM (inactive) and 53.1 µM (inactive) | 20 µM (inactive) and 27.2 µM (inactive) | 33 µM (inactive) and 28.8 µM (inactive) | 43.9 µM (inactive) and 40.1 µM (inactive)
